The structures appear in SMILES notation.

One assay deals with NCI-H441. The experiment in a line: Antiproliferative activity against human NCI-H441 cells assessed as reduction in cell viability incubated for 48 hrs by WST-8 assay. The assay is classed as functional, cell-based. The settings on record: NCI-H441, 48 h. (Formazan colour is commonly taken as a measure of viable cells.)
In another assay the test system is A549. The experiment in a line: Antiproliferative activity against human A549 cells expressing wild type EGFR assessed as reduction in cell viability incubated for 48 hrs by MTT assay. The assay is classed as functional, cell-based. The settings on record: A549, 48 h.
In a further assay the test system is HCC827. The experiment in a line: Antiproliferative activity against human HCC827 cells assessed as reduction in cell viability incubated for 72 hrs by MTT assay. The class given is functional, cell-based. The settings on record: HCC827, 72 h.
Another assay concerns NSCLC. The experiment in a line: Antiproliferative activity against human NSCLC cells assessed as cell growth inhibition incubated for 72 hrs by MTT assay. The class given is functional, cell-based.
Assay [1] relates to SK-BR-3. The experiment in a line: Antiproliferative activity against human SK-BR-3 cells assessed as inhibition of cell proliferation incubated for 3 days by sulforhodamine B colorimetric assay. The settings on record: SK-BR-3, 72 h. The class given is functional, cell-based.
For another assay, the system named is ZR-75-1. As to the kind of experiment: Cytotoxicity against human ZR-75-1 cells assessed as reduction in cell viability incubated for 24 hrs by MTT assay. The assay is classed as functional, cell-based. The settings on record: ZR-75-1, 24 h.
For assay [2], the system named is HCT-116. As to the kind of experiment: Cytotoxicity against human HCT-116 cells assessed as reduction in cell growth measured after 24 hrs by MTT assay. The class given is functional, cell-based. The settings on record: HCT-116, 24 h.
The test system of assay [3] is SK-BR-3. As to the kind of experiment: Cytotoxicity against human SK-BR-3 cells assessed as reduction in cell growth incubated for 24 hrs by MTT assay. The assay is classed as functional, cell-based. The conditions noted are these: SK-BR-3, 24 h.
In assay [4] the test system is MDA-MB-231. The experiment in a line: Cytotoxicity against human MDA-MB-231 cells assessed as cell growth inhibition incubated for 48 hrs by SRB assay. The conditions noted are these: MDA-MB-231, 48 h. The class given is functional, cell-based.
Another assay has as its system PANC-1. As to the kind of experiment: Cytotoxicity against human PANC-1 cells assessed as reduction in cell viability measured after 24 hrs by MTT assay. The class given is functional, cell-based. The settings on record: PANC-1, 24 h.
A further assay relates to NCI-H460. As to the kind of experiment: Cytotoxicity against human NCI-H460 cells assessed as reduction in cell viability incubated for 24 hrs by MTT assay. The conditions noted are these: NCI-H460, 24 h. The class given is functional, cell-based.
In the next assay the test system is A-431. As to the kind of experiment: Cytotoxicity against human A-431 cells assessed as reduction in cell growth measured after 24 hrs by MTT assay. The class given is functional, cell-based. The settings on record: A-431, 24 h.
Assay [5] concerns MDA-MB-231. As to the kind of experiment: Cytotoxicity against human MDA-MB-231 cells assessed as reduction in cell viability incubated for 24 hrs by MTT assay. The assay is classed as functional, cell-based. The settings on record: MDA-MB-231, 24 h.
The subject of a further assay is SK-OV-3. As to the kind of experiment: Cytotoxicity against human SK-OV-3 cells assessed as reduction in cell growth measured after 24 hrs by MTT assay. The settings on record: SK-OV-3, 24 h. The assay is classed as functional, cell-based.
For assay [6], the system named is MCF7. As to the kind of experiment: Cytotoxicity against human MCF7 cells assessed as reduction in cell growth incubated for 24 hrs by MTT assay. The assay is classed as functional, cell-based. The settings on record: MCF7, 24 h.
Another assay relates to K562. As to the kind of experiment: Antiproliferative activity against human K562 cells assessed as reduction in cell viability incubated for 48 hrs by MTT assay. The assay is classed as functional, cell-based. The conditions noted are these: K562, 48 h.
For assay [7], the system named is MDA-MB-231. The experiment in a line: Anticancer activity against human MDA-MB-231 cells assessed as reduction in cell viability measured after 72 hrs by MTT assay. The assay is classed as functional.
Another assay concerns Jurkat. The experiment in a line: Antiproliferative activity against human Jurkat T cells assessed as inhibition of cell growth at 50 uM incubated for 24 hrs relative to control. Further details: scale not given: the % may be the effect or the level left. The assay is classed as functional.
Assay [8] has as its system MCF7. As to the kind of experiment: Antiproliferative activity against human MCF7 cells assessed as reduction in cell viability incubated for 72 hrs by MTT assay. The conditions noted are these: MCF7, 72 h. The class given is functional, cell-based.
Assay [9] has as its system U-937. The experiment in a line: Antiproliferative activity against human U-937 cells assessed as cell growth inhibition measured after 72 hrs. The assay is classed as functional, cell-based. The conditions noted are these: U-937, 72 h.
The test system of assay [10] is U-937. As to the kind of experiment: Antiproliferative activity against human U-937 cells measured upto 72 hrs. The settings on record: U-937, 72 h. The assay is classed as functional, cell-based.
Assay [11] can be described thus: Inhibition of Streptococcus sobrinus glycosyl transferase.
Another assay has as its system LNCaP. As to the kind of experiment: Antiproliferative activity against human LNCaP assessed as reduction in cell viability incubated for 72 hrs by MTT assay. The assay is classed as functional, cell-based.
For assay [12], the system named is HCT-116. As to the kind of experiment: Antiproliferative activity against human HCT-116 cells assessed as reduction in cell viability incubated for 24 hrs by MTT assay. The class given is functional, cell-based. The settings on record: HCT-116, 24 h.
In assay [13] the test system is MDA-MB-231. As to the kind of experiment: Cytotoxicity against human MDA-MB-231 cells assessed as reduction in cell viability measured after 24 hrs by MTT assay. The settings on record: MDA-MB-231, 24 h.
Assay [14] has as its system MDA-MB-231. The experiment in a line: Antitumor activity against human MDA-MB-231 cells xenografted in athymic nude mouse assessed as the inhibition of tumor growth at 50 mg/kg, sc administered daily once for 31 days relative to control. The conditions noted are these: time 31 day. The arrangement: scale not given: the % may be the effect or the level left. The assay is classed as functional. Background: Xenograft models place foreign cells or tissue in a host animal.

In the case of `O=C(O[C@@H]1Cc2c(OCc3cnnn3[C@H]3O[C@H](CO)[C@@H](O)[C@H](O)[C@H]3O)cc(O)cc2O[C@@H]1c1cc(O)c(O)c(O)c1)c1cc(O)c(O)c(O)c1`, the half-inhibitory concentration (IC50) (commonly the concentration needed to halve the response being measured) in the assay with NCI-H441 was 100 µM; in the assay on A549, 30 µM.
With `COC(=O)c1c(O)cc2c(c1O)C[C@@H](OC(=O)c1cc(O)c(O)c(O)c1)[C@@H](c1cc(O)c(O)c(O)c1)O2`, the IC50 with HCC827 and in the assay on NSCLC was about 20 µM each time.
Take `O=C(Oc1ccc(-c2ccc(OC(=O)c3cc(O)c(O)c(O)c3)cc2)cc1)c1cc(O)c(O)c(O)c1`: the IC50 in the assay with SK-BR-3 [1] was found to be 10 µM; in the assay with ZR-75-1, 2 µM; in the assay with HCT-116 [2] it was 10 µM; in the assay on SK-BR-3 [3] it was 2 µM; with MDA-MB-231 [4], 45 µM; with PANC-1, 10 µM. Also, the half-maximal inhibitory concentration (IC50) amounted to 10 µM in the assay on NCI-H460; 10 µM in the assay with A-431; 2 µM in the assay on MDA-MB-231 [5]; 10 µM with SK-OV-3; 10 µM in the assay with MCF7 [6].
For the molecule `CCCCCCCCCCCCCCCC(=O)Oc1cc([C@H]2Oc3cc(O)cc(O)c3C[C@H]2OC(=O)c2cc(O)c(O)c(O)c2)cc(O)c1O`, the IC50 with K562 turned out to be 17 µM.
Take `O=C(Oc1cc(O)cc2ccccc12)c1cc(O)c(O)c(O)c1`: the IC50 with MDA-MB-231 [4] worked out at 79 µM.
`CC(=O)Oc1cc(OC(C)=O)c2c(c1)O[C@H](c1cc(OC(C)=O)c(OC(C)=O)c(OC(C)=O)c1)[C@H](OC(=O)c1ccc(F)c(F)c1)C2`: the Activity in the assay with MDA-MB-231 [7] is 33%; with Jurkat, 90%.
With `COc1cccc(C(=O)O[C@H]2COc3cc(OC)cc(OC)c3C2)c1`, in the assay on MCF7 [8], the IC50 was found to be 0.77 µM.
In the case of `O=C(Oc1cc(OC(=O)c2cc(O)c(O)c(O)c2)c2ccccc2c1)c1cc(O)c(O)c(O)c1`, in the assay on MDA-MB-231 [4], the IC50 was determined as 77 µM.
`O=C(Nc1ccccc1NC(=O)c1ccc(O)c(O)c1)c1ccc(O)c(O)c1`: the IC50 in the assay on U-937 [9] amounted to 25 µM; in the assay with U-937 [10] it was 0.72 µM.
`O=C(O[C@@H]1Cc2c(O)cc(O)cc2O[C@@H]1c1cc(O)c(=O)c2c(O)c(O)cc([C@H]3Oc4cc(O)cc(O)c4C[C@H]3O)c2c1)c1cc(O)c(O)c(O)c1` [THEAFLAVIN MONOGALLATES] returned an IC50 in assay [11] of 7.7 µM.
`O=C(O[C@@H]1Cc2c(O)cc(O)cc2O[C@@H]1c1ccc(O)c(O)c1)c1cc(O)c(O)c(O)c1` [EPICATECHIN GALLATE]: in the assay with LNCaP, the IC50 was 36 µM.
The same measure, in the same setting: the result for `O=C(O[C@@H]1Cc2c(F)cc(F)cc2O[C@@H]1c1ccc(O)c(O)c1)c1cc(O)c(O)c(O)c1` reads 13 µM.
Turning to `O=C(O[C@@H]1Cc2c(O)cc(O)cc2O[C@@H]1c1cc(O)c(=O)c2c(O)c(O)cc([C@H]3Oc4cc(O)cc(O)c4C[C@H]3OC(=O)c3cc(O)c(O)c(O)c3)c2c1)c1cc(O)c(O)c(O)c1` [THEAFLAVIN DIGALLATE], the IC50 in the assay on HCT-116 [12] worked out at 120 µM.
Take `CC(=O)Oc1cc(OC(C)=O)c2c(c1)O[C@H](c1cc(OC(C)=O)c(OC(C)=O)c(OC(C)=O)c1)[C@H](OC(=O)c1cc(OC(C)=O)c(OC(C)OC(=O)OC(C)C)c(OC(C)=O)c1)C2` (some centres undefined): the half-maximal cytotoxic concentration (CC50) (commonly the concentration giving 50% cytotoxicity) in the assay with MDA-MB-231 [13] stood at 53.9 µM.
Consider `CC(=O)Oc1cc(OC(C)=O)c2c(c1)O[C@H](c1cc(OC(C)=O)c(OC(C)=O)c(OC(C)=O)c1)[C@H](OC(=O)c1cc(OC(C)=O)c(OC(C)=O)c(OC(C)=O)c1)C2`, for which, in the assay on MDA-MB-231 [14], the Activity was determined as 54%.
